Test results published in patent US8715673B2 (priority 2011, dated 2014).
“And” between values parts separate entries of the source, which are not always exact repeats. Equal entries are not always repeated. Where two headings read alike, the source gives them in different places.

What was measured:
Details in all cases: in vivo
[1] = test system: S. aureus strain USA300 (LAC)
[2] = test system: S. aureus strain USA300 (LAC); remark: listed apart in the source
[3] = test system: S. aureus strain USA300 (LAC); remark: listed apart in the source
[4] = test system: S. aureus strain USA300 (LAC); remark: listed apart in the source
[5] = test system: S. aureus strain USA300 (LAC); remark: listed apart in the source
[6] = test system: S. aureus strain USA300 (LAC); remark: listed apart in the source
[7] = test system: Staphylococcus aureus strain USA300 (LAC); design: species or system S. aureus
[8] = test system: Staphylococcus aureus strain USA300 (LAC); design: species or system S. aureus; remark: listed apart in the source

CC(=O)NC[C@H]1CN(c2ccc(N3CCOCC3)c(F)c2)C(=O)O1 [linezolid]
Cumulative survival (%) day 0, 2 h [1]: 100% | Cumulative survival (%) day 0, 4 h [1]: 100% | Cumulative survival (%) day 0, 8 h [1]: 100% | Cumulative survival (%) day 0, 12 h [1]: 100% | Cumulative survival (%) day 1 [1]: 100% and 60% | Cumulative survival (%) Day 0 [2]: 100% | Cumulative survival (%) Day 1 [2]: 100% | Cumulative survival (%) Study end [2]: 40% | CFU/g Kidney Tissue (log10), individual mouse [3]: 0.00 and 5.95 and 3.77 and 3.21 | CFU/g Kidney Tissue (log10), mean CFU/g [3]: 3.23 | CFU/g Lung Tissue (log10), individual mouse [3]: 3.13 and 7.64 and 4.36 and 3.55 | CFU/g Lung Tissue (log10), mean CFU/g [3]: 4.67 | Cumulative survival (%) Day 0 [4]: 100% | Cumulative survival (%) Day 1 [4]: 100% | Cumulative survival (%) Day 2 [4]: 60% and 100% | Cumulative survival day 1 [4]: 100% | Cumulative survival day 2 [4]: 60% | Cumulative survival day 3 [4]: 20% | Cumulative survival day 4 [4]: 20% | Cumulative survival day 5 [4]: 20% | Median survival time [4]: 4 days and 2.5 days | survival rate [4]: 90% | Cumulative survival (%) Day 1 [5]: 100% | Cumulative survival (%) Day 7 [5]: 70% | cumulative survival at day 7 [5]: 70% | survival rate at day 14 (study end) [5]: 70% | Cumulative survival (%) Day 1 [6]: 100% | Cumulative survival (%) Day 7 [6]: 70% | cumulative survival at day 7 [6]: 70% | survival rate at study end [6]: 60% | Average area of abscess (mm^2) Day 0 [7]: 0.0 mm^2 | Average area of abscess (mm^2) Day 1 [7]: 0.0 mm^2 | Average area of abscess (mm^2) Day 2 [7]: 6.6 mm^2 | Average area of abscess (mm^2) Day 3 [7]: 4.9 mm^2 | Average area of abscess (mm^2) Day 4 [7]: 3.7 mm^2 | mean area of skin abscess, day 1 [7]: about 0.0 mm^2 | mean area of skin abscess, day 2 [7]: ~6.6 mm^2 | mean area of skin abscess, day 3 [7]: ~4.9 mm^2 | mean area of skin abscess, day 4 [7]: ~3.7 mm^2 | Day 4 CFU/g tissue (log10), Mean CFU/g [8]: 5.2 CFU/g tissue (log10) | Day 4 CFU/g tissue (log10), individual mice [8]: 5.7 CFU/g tissue (log10) and 5.2 CFU/g tissue (log10) and 6.0 CFU/g tissue (log10) and 4.5 CFU/g tissue (log10) and 4.8 CFU/g tissue (log10) and 5.1 CFU/g tissue (log10) and 5.4 CFU/g tissue (log10) and 4.9 CFU/g tissue (log10) | Day 4 CFU/g tissue (log10), median [8]: 5.1 CFU/g tissue (log10) | bacterial burden in the infected area, average [8]: about 5.2 log 10 CFU/g
